Target: mitochondrial respiratory chain complex I (Homo sapiens, UniProt O75251+O75306+P03886)
Assay: spectrophotometric NADH:decylubiquinone oxidation in DU145 homogenate
Format: cell-based

mitochondrial respiratory chain complex I, sequence (P03886 whole entry): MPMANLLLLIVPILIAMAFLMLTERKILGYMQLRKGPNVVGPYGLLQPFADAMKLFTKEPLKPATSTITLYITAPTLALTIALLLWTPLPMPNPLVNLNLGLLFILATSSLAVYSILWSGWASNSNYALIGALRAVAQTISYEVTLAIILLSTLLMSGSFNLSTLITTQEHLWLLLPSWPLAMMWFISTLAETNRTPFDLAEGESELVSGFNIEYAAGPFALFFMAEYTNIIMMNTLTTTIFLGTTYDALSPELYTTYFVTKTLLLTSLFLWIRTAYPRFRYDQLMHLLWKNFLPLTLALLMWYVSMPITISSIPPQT
mitochondrial respiratory chain complex I, sequence (O75306 34-463): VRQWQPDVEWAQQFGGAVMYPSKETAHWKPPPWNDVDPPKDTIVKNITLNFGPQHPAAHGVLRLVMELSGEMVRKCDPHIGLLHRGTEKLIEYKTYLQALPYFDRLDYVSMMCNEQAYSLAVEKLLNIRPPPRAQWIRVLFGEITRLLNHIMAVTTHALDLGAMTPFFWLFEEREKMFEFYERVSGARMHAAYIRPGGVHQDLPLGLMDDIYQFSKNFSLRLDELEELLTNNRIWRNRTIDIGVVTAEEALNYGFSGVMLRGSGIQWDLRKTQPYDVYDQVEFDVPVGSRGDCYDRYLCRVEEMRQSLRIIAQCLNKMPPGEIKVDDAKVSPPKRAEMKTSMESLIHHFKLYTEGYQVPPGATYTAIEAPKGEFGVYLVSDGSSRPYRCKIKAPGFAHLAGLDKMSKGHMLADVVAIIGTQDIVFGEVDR
mitochondrial respiratory chain complex I, sequence (O75251 39-213): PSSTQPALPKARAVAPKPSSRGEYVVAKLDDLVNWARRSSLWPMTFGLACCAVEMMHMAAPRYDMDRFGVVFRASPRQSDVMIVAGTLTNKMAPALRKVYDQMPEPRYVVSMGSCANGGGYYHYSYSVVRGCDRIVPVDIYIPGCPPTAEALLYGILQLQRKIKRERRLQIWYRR

Compound CCCCN1CCCC[C@H]1C(=O)Nc1c(C)cccc1C [levobupivacaine] has a Ki of 600 µM.

Source: publication PMC6019688 (Redox Biology, 2018)
